Source: publication PMC9406419, “OATD-02 Validates the Benefits of Pharmacological Inhibition of Arginase 1 and 2 in Cancer” (Cancers, 2022)
pIC50: −log10 of the molar value. Where two headings read alike, the source gives them in different places.

Experiments:
[1] = test system: intracellular arginase in murine M2-polarized BMDMs; assay: Cell-based arginase inhibition assay in murine M2-polarized bone marrow-derived macrophages (urea in supernatant); parameters: species or system mouse; details: 24 h incubation, 5 mM L-arginine, read-out: IC50, intracellular activity towards arginase-expressing immune cells
Method: The intracellular activity of OATD-02 arginase inhibitor was determined using murine M2-polarized macrophages. Bone marrow cells were collected from femur bones of C57BL/6 male mice. The cells suspended in DMEM medium (ThermoFisher, Waltham, MA, USA) supplemented with 5% FBS and 50 ng/mL M-CSF (PeproTech, Rocky Hill, NJ, USA) were poured through a 40 µm cell strainer and seeded into Petri dishes at 1 × 10^6 cells/mL for 2 days (37 °C, 5% CO2). Next, nonadherent cells were removed and fresh medium was added (DMEM, 5% FCS, 50 ng/mL M-CSF). The next day, the cells were dissociated using the CellStripper Dissociation Reagent (Corning, New York, NY, USA) and resuspended in the fresh DMEM medium containing 5% FCS, 50 ng/mL M-CSF, 20 ng/mL TGF-ß, and 30 ng/mL IL-4 (Biomibo, Warszawa, Poland). The cells were seeded into 96-well plates (64 × 10^3 cells/100 µL/well). […] Following 24 h incubation (37 °C, 5% CO2), the generated urea was detected by mixing 50 µL of the supernatant with 75 µL of the developing reagent (as described in the above section). Normalized absorbance values (515 nm) were fitted to a four-parameter equation using GraphPad Prism and IC50 values were determined. […] Normalized absorbance values (515 nm) were fitted to a four-parameter equation using GraphPad Prism and IC50 values were determined. […]

recombinant human ARG1 = molecular target: T1, recombinant human ARG1 (Homo sapiens, UniProt P05089); assay: Recombinant arginase inhibition assay (colorimetric urea detection), ARG1; format: biochemical; details: recombinant human ARG1, 10 mM L-arginine, 37 °C, 1 h, pH 7.4
T1 construct: made in house; host or cells: E. coli
T1 sequence (P05089 1-322): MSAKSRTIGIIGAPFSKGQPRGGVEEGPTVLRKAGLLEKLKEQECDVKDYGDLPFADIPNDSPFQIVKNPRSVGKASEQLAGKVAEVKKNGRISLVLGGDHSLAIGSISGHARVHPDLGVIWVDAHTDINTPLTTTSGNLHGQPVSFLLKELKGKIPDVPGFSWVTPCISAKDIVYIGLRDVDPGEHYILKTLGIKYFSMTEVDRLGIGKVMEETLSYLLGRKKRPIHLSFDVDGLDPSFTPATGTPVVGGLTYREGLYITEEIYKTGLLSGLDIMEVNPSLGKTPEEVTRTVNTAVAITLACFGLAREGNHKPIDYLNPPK
Method: The enzymatic reaction was carried out at 37 °C for 1 h in the assay buffer (100 mM sodium phosphate buffer, 130 mM NaCl, pH 7.4) with the addition of 1 mg/mL BSA in the presence of 200 µM MnCl2 (enzyme cofactor), 10 mM (for ARG1) or 20 mM (for ARG2) of L-arginine hydrochloride (enzyme substrate), and serial dilutions of the test compounds. The inhibition of the arginase activity was determined by colorimetric detection of produced urea, as previously described [29] with minor changes. Briefly, 150 µL of freshly prepared developing reagent (2 mM o-phthaldialdehyde (OPA), 2 mM N-(1-naphthyl)ethylenediamine dihydrochloride (NED), 50 mM boric acid, 1 M sulfuric acid, 0.03% Brij-35) was added to each well, incubated for 20 min at RT, then the absorbance at 515 nm was measured. Normalized values were fitted to a four-parameter equation using GraphPad Prism and IC50 values were determined.

K562 tumours = assay: K562 xenograft model in athymic nude mice; format: in vivo, mouse
Method: CT26 and K562 in vivo experiments were conducted at Molecure SA. All experimental procedures were approved by the 1st Local Ethics Committee in Warsaw (Poland). For the syngeneic CT26 model, 7–8-week old BALB/c females (n = 9–18 per group, BALB/cAnNCrl, Charles River Laboratories) were injected subcutaneously in the right flank with 5 × 10^5 CT26 cells. […] Anti-PD-L1 antibody (InVivoPlus anti-mouse PD-L1, clone 10F.9G2, BioXCell, lot 615416D1) was injected intraperitoneally at 2.5 mg/kg on days: 8, 10, 12, 14 and 16 post tumour cells inoculation. Control groups received vehicle (saline) or isotype antibody (InVivoPlus rat IgG2b, anti-KLH, BioXCell, lot 629816D1). For the xenograft K562 model, 7–8 week-old athymic nude mice (n = 8–11 per group, Crl:NU(NCr)-Foxn1^nu, Charles River Laboratories) or NK cell-deficient Fox Chase SCID Beige mice (n = 10–12 per group, CB17.Cg-Prkdc^scidLyst^bg-J/Crl, Charles River Laboratories) were injected subcutaneously in the right flank with 1 × 10^7 K562 cells. […] Tumour volume measured by a digital calliper (width × length × depth × π/6) was recorded three times per week. Animals were euthanized when tumours were necrotized or volume exceeded 2000 mm^3. Renca in vivo efficacy study was performed at Crown Biosciences Inc. (Taicang, China). […] Tumour volumes (length × width^2 × 0.5) were measured twice per week. […]

pIC50 ([1]; Mus musculus, BMDM)	SMILES	pIC50 [1]	pIC50 (recombinant human ARG1)	final TGI, K562 tumor volumes, athymic nude mice (K562 tumours; 50 mg/kg PO BID from day 6, day 19 post-inoculation)	final TGI, K562 tumor volumes, athymic nude mice (K562 tumours; 100 mg/kg PO BID (Figure 5 legend) from day 6, day 19 post-inoculation)
	CN(C)C[C@@H]1CC[C@@H](CCB(O)O)C[C@]1(N)C(=O)O [OATD-02]	5.96	7.77	49%	
4.25	C[C@H](N)C(=O)N1C[C@H](CCCB(O)O)[C@](N)(C(=O)O)C1 [ref. ARGi, numidargistat, reference compound]				14%
